Square brackets hold non-standard residues; d marks the D form. Peptide text beside a SMILES is read from it. dLac(3-vinyl) = C=CC[C@@H](O)C(=O)O; dHica = CC(C)C[C@@H](O)C(=O)O; NMeV = CN[C@H](C(=O)O)C(C)C; NMeA = CN[C@@H](C)C(=O)O; βAla = NCCC(=O)O
How the values were obtained:
[1] = tested on: silk worm larvae; details: cited from earlier work
[2] = tested on: mice; details: intraperitoneal injection; cited from earlier work
[3] = tested on: mice; assay: Toxicity to mice by intraperitoneal injection; details: ratio of lethal doses
[4] = tested on: Spodoptera frugiperda; assay: Insecticidal activity, diet incorporation, neonate fall armyworm larvae; type: in vivo; details: 2.5 ppm in diet; for Mortality: neonate larvae fed 1 week; for Wt. reductions: survivors after 1 week
Method: (§1) Insects. Neonate larvae of Heliothis zea and Spodoptera frugiperda were used for all assays. They were obtained from laboratory colonies reared on pinto bean-based diet at 27°±1° C., 40±10% relative humidity, and a 14:10 light:dark photoperiod.
(§2) The diet used to rear the insects was based on a standard pinto bean diet for many species of lepidoptera and contained the following ingredients: 120 g dried pinto beans, 43 g wheat germ, 28 g brewer's yeast, 8 g Vanderzant's vitamin mix, 2.8 g ascorbic acid, 1.75 g methyl paraben, 0.9 g sorbic acid, 12 g agar, 1 ml formaldehyde (38%), 1.5 ml of propionic-phosphoric acid solution (42% propionic acid, 4.2% phosphoric acid), and 550 ml water. All dry diet ingredients (except for the pinto beans) were purchased from U.S. Biochemicals Corp. Before use, the beans were soaked in water until saturated. The agar was added to 250 ml of water and brought to a boil. The other ingredients were blended in a Waring blender until uniformly mixed. The hot agar was added, and blending continued until all ingredients were uniformly mixed.
(§3) The pinto bean-based diet was prepared and added in 5-ml quantities to test tubes. The test tubes were held at 60° C. until chemicals were incorporated to prevent solidification of the diet. The roseotoxin B was added in 125 μl of acetone to the liquid diet upon removal from the water bath to give a final concentration of 250-2.5 ppm. The chemical was incorporated into the diets by blending vigorously with a vortex mixer for 20 sec. Preliminary observations with colored solutions of both water and acetone indicated uniform incorporation by this method. The diets were dispensed into culture plates, and allowed to cool to room temperature. To remove the potentially toxic acetone, the diets were placed in a fume hood for ca. 20 min until slight darkening occurred. The diets were cut into approximately equal sections, and each section was placed into a well of a 24-well immunoassay plate. A single neonate H. zea or S. frugiperda larvae was added to each well. To prevent desiccation of the diet, the plate was covered by a sheet of parafilm, a sheet of cardboard, and the plastic cover. The cover was secured by two rubber bands, and groups of plates were placed in two polyethylene bags held closely by rubber bands. The plates were held under the same conditions used to rear the insects. Mortality was checked at 2, 4, and 7 days, and the surviving larvae were weighed after 7 days. Each chemical set was tested on a total of 40 larvae.
(§4) Mortality values are based on two replicates of ca. 20 insects each, whil
(§5) weight reductions are based on survivors of mortality tests. All chemical
(§6) were incorporated into insect diets, and fed to neonate larvae for 1 week

[5] = tested on: Heliothis zea; assay: Insecticidal activity, diet incorporation, neonate corn earworm larvae; type: in vivo; details: 2.5 ppm in diet; for Mortality: neonate larvae fed 1 week; for Wt. reductions: survivors after 1 week
Method: as §1, §2, §3, §4, §5, §6

SMILES	Dose causing death by injection [1] [µg/g]	Dose that killed all test mice [2] [mg/kg]	Mammalian toxicity relative to roseotoxin B [3]	Mortality [4] [%]	Wt. reductions [4] [%]	Mortality [5] [%]	Wt. reductions [5] [%]
CC[C@H](C)[C@@H]1NC(=O)[C@@H]2CCCN2C(=O)[C@@H](CC(C)C)OC(=O)CCNC(=O)[C@H](C)N(C)C(=O)[C@H](C(C)C)N(C)C1=O [Destruxin B] (cyclo([dHica]PI[NMeV][NMeA][βAla]))	0.34	16.9	about 10 times	–	–	–	–
CCOC(=O)CC(SP(=S)(OC)OC)C(=O)OCC (centres unmarked) [Malathion]	–	–	–	30	45	5.5	27
CC1(C)C(C=C(Cl)Cl)C1C(=O)OCc1cccc(Oc2ccccc2)c1 (centres unmarked) [Permethrin]	–	–	–	35	94	17	81
C=CC[C@H]1OC(=O)CCNC(=O)[C@H](C)N(C)C(=O)[C@H](C(C)C)N(C)C(=O)[C@H]([C@@H](C)CC)NC(=O)[C@@H]2CCCN2C1=O [destruxin A] (cyclo([dLac(3-vinyl)]PI[NMeV][NMeA][βAla]))	0.28	1.35	approximately 100 times	–	–	–	–

Reference: patent US4956343A, “Control of insects by Roseotoxin B” (priority 1988, dated 1990)
